Columns and labels:
plasmid DNA = test: agarose gel electrophoresis (gel retardation) of nucleic acid-aminoglycoside complexes; assay type: binding; details: plasmid DNA complexed with 5-100 mM aminoglycoside
Description: Plasmid DNA and the three different prototype aminoglycosides (neomycin, gentamycin, tobramycin) were diluted to 2× the final desired concentration in separate vials. In formulations with a molar excess of DNA, the diluted aminoglycoside solution was added to the DNA using a pipette with light vortexing. In formulations with a molar excess of aminoglycoside, the DNA was added to the aminoglycoside solution with light vortexing. The formulations were allowed to rest for about 30 minutes before characterization. Complexes of Nucleic Acid-Aminoglycoside were prepared according to the above described method and then analyzed using agarose gel electrophoresis to verify that the nucleic acids were being complexed with the aminoglycosides. Specifically, complexes having varying doses of DNA to three different aminoglycosides were prepared such that plasmid DNA was complexed with 5-100 mM of Neomycin, Tobramycin and Gentamicin.

[1] = intravenous and subcutaneous; patients with normal renal function; Physicians' Desk Reference, 2001; cited from earlier work

Row | Molecule | gel retardation (complexation of DNA with aminoglycoside) (plasmid DNA) | high dose delivered without adverse or unacceptable therapeutic effects [1]
1 | neomycin | dose-dependant increase in gel retardation | –
2 | Gentamicin | dose-dependant increase in gel retardation | 5 mg/kg of body weight per day
3 | NC[C@H]1O[C@H](O[C@H]2[C@H](O)[C@@H](O[C@H]3O[C@H](CO)[C@@H](O)[C@H](N)[C@H]3O)[C@H](N)C[C@@H]2N)[C@H](N)C[C@@H]1O [Tobramycin, tobramycin] | dose-dependant increase in gel retardation | –
4 | NCC[C@H](O)C(=O)N[C@@H]1C[C@H](N)[C@@H](O[C@H]2O[C@H](CN)[C@@H](O)[C@H](O)[C@H]2O)[C@H](O)[C@H]1O[C@H]1O[C@H](CO)[C@@H](O)[C@H](N)[C@H]1O [amikacin] | – | 15 mg/kg of body weight per day
